Measurements reported in patent US4348264A, “Photocatalyzed process for producing carbapenams and carbapen-2-ems” (Pfizer Inc., priority 1981, dated 1982).

Key:
Assay type in all cases: cell-based
Bacillus subtilis = test: Standard disc-plate method, zone of inhibition
Source text: (§1) The utility of the various compounds as intermediates to other compounds of the present invention will be evident from the preceding discussion. The antibacterial activity of these compounds, reflecting their utility in the control of susceptible bacterial infections in man and animals, as animal feed additives for promotion of growth, or as preservatives of materials biodegraded by susceptible microorganisms, is best measured by the standard disc-plate method routinely employed in clinical laboratories for determining the sensitivity of microorganisms to antimicrobial substances. Sensitivity discs are prepared by dipping a standard 6.25 mm. paper disc into a solution of the compound to be tested (conc. 1 mg./ml.) in a volatile solvent (e.g. methylene chloride) and the disc dried, producing discs containing approximately 25 microg. of the compound. The discs are placed on the surface of agar growth media seeded with the test microorganism, previously plated into Petri dishes. The plates are incubated overnight at 35°-37° C. Activity of the test compound is reflected by a zone of inhibition of bacterial growth around the test disc. The diameter of this zone provides a quantitative measure of the activity of the antibacterial substance. The activity of various compounds of the present invention is summarized in Table I. For comparison, results obtained with 10 microg. discs of ampicillin and penicillin G are included as positive controls.

Escherichia coli [1] = test: Standard disc-plate method, zone of inhibition; details: for zone of inhibition at 25 µg/disc: Escherichia coli
Source text: as §1

Micrococcus luteus = test: Standard disc-plate method, zone of inhibition
Source text: as §1

Staphylococcus aureus [2] = test: Standard disc-plate method, zone of inhibition
Source text: as §1

Vibrio percolans = test: Standard disc-plate method, zone of inhibition; details: for zone of inhibition at 25 µg/disc: 25 microgram discs
Source text: as §1

[3] = test system: Staphylococcus aureus (Antibiotic Resistant); test: Standard disc-plate method, zone of inhibition; details: for zone of inhibition at 25 µg/disc: 25 microgram discs
Source text: as §1

Proteus morgani = test: Serial dilution-tube method, MIC; details: brain heart infusion broth
Enterobacter cloacae = test: Serial dilution-tube method, MIC; details: brain heart infusion broth
Serratia marcescens = test: Serial dilution-tube method, MIC; details: brain heart infusion broth
Klebsiella pneumoniae = test: Serial dilution-tube method, MIC; details: brain heart infusion broth
Pseudomonas aeruginosa = test: Serial dilution-tube method, MIC; details: brain heart infusion broth
[4] = test system: Escherichia coli (Antibiotic Resistant); test: Serial dilution-tube method, MIC; details: brain heart infusion broth
Escherichia coli [5] = test: Serial dilution-tube method, MIC; details: brain heart infusion broth
[6] = test system: Staphylococcus aureus (Antibiotic Resistant); test: Serial dilution-tube method, MIC; details: brain heart infusion broth
Staphylococcus aureus [7] = test: Serial dilution-tube method, MIC; details: brain heart infusion broth
[8] = Bacillus subtilis, 25 microgram discs
[9] = Micrococcus luteus, 25 microgram discs
[10] = Staphylococcus aureus, 25 microgram discs
[11] = Staphylococcus aureus, antibiotic resistant
[12] = positive control, 10 microgram discs

| Compound | zone of inhibition at 25 µg/disc (Bacillus subtilis; [8]) [mm] | zone of inhibition at 25 µg/disc (Escherichia coli [1]; 25 microgram discs) [mm] | zone of inhibition at 25 µg/disc (Micrococcus luteus; [9]) [mm] | zone of inhibition at 25 µg/disc (Staphylococcus aureus [2]; [10]) [mm] | zone of inhibition at 25 µg/disc (Vibrio percolans; Comamonas terrigena) [mm] | zone of inhibition at 25 µg/disc [3, 11] [mm] | also measured |
| --- | --- | --- | --- | --- | --- | --- | --- |
| CC(=O)OC(C)C1C(=O)N2C(C(=O)O)=C(C)C(OC(C)=O)C12 (stereo not drawn) [AET H H CH3 H OAc I, Sodium 6-alpha-(1-Acetoxyethyl)-1-acetoxy-2-methylcarbapen-2-em-3-carboxylate] | 25 | 0 | 26 | 21 | 10 |  |  |
| CC(=O)OC(C)C1C(=O)N2C(C(=O)O)=C(C)C(O)C12 (stereo not drawn) [AET H H CH3 H OH I, Sodium 6-alpha-(1-Acetoxyethyl)-1-hydroxy-2-methylcarbapen-2-em-3-carboxylate] | 15 | 0 | 20 | 20 | 16 |  |  |
| CCN1CCN(C(=O)N[C@@H](C(=O)NC2C(=O)N3C(C(=O)OCOC(=O)C(C)(C)C)=C(C)C(=O)C23)c2ccccc2)C(=O)C1=O (stereo partly drawn) [EPA H POM CH3 O II, Pivaloyloxymethyl 2-Methyl-1-oxo-6-[2-phenyl-2-(4-ethyl-2,3-dioxopiperazine-1-carboxamido)acetamido]carbapen-2-em-3-carboxylate] | 0 | 0 | 0 | 0 | 20 | 0 |  |
| CC(=O)OC1C(C)=C(C(=O)O)N2C(=O)CC12 (stereo not drawn) [H H H CH3 H OAc II, Sodium 1-Acetoxy-2-methylcarbapen-2-em-3-carboxylate] | 13 | 0 |  |  | 18 | 8 |  |
| CC(=O)OCC1=C(C(=O)OCOC(=O)C(C)(C)C)N2C(=O)CC2C1=O (stereo not drawn) [H H POM CH2OAc O II, Pivaloyloxymethyl 2-Acetoxymethyl-1-oxocarbapen-2-em-3-carboxylate] |  |  |  | 0 |  | 12 |  |
| CC(=O)OC1C(C)=C(C(=O)OCOC(=O)C(C)(C)C)N2C(=O)CC12 (stereo not drawn) [H H POM CH3 H OAc II, Pivaloyloxymethyl 1-Acetoxy-2-methylcarbapen-2-em-3-carboxylate] | 14 |  | 0 | 13 |  | 0 |  |
| CC1=C(C(=O)OCOC(=O)C(C)(C)C)N2C(=O)CC2C1O (stereo not drawn) [H H POM CH3 H OH II, Pivaloyloxymethyl 1-Hydroxy-2-methylcarbapen-2-em-3-carboxylate] | 15 | 10 | 10 | 15 |  | 13 |  |
| CC(=O)OC1C(C)=C(C(=O)[O-])N2C(=O)C(C(C)O)C12.[Na+] (stereo not drawn) [HET H H CH3 H OAc I, Sodium 6-alpha-(1-Hydroxyethyl)-1-acetoxy-2-methylcarbapen-2-em-3-carboxylate] |  |  |  |  |  |  | Zone of Inhibition (Bacillus subtilis; 25 microgram discs): 16 mm; Zone of Inhibition (Escherichia coli [1]; 25 microgram discs): 0 mm; Zone of Inhibition (Micrococcus luteus; 25 microgram discs): 13 mm; Zone of Inhibition (Staphylococcus aureus [2]; 25 microgram discs): 0 mm; Minimum Inhibitory Concentration (Proteus morgani): > 200 µg/mL; Minimum Inhibitory Concentration (Enterobacter cloacae): > 200 µg/mL; Minimum Inhibitory Concentration (Serratia marcescens): > 200 µg/mL; Minimum Inhibitory Concentration (Klebsiella pneumoniae): > 200 µg/mL; Minimum Inhibitory Concentration (Pseudomonas aeruginosa): > 200 µg/mL; Minimum Inhibitory Concentration [4]: > 200 µg/mL; Minimum Inhibitory Concentration (Escherichia coli [5]): > 200 µg/mL; Minimum Inhibitory Concentration [6]: 100 µg/mL |
| CC1=C(C(=O)[O-])N2C(=O)C(C(C)O)C2C1O.[Na+] (stereo not drawn) [HET H H CH3 H OH I] |  |  |  |  |  |  | Zone of Inhibition (Bacillus subtilis; 25 microgram discs): 29 mm; Zone of Inhibition (Escherichia coli [1]; 25 microgram discs): 23 mm; Zone of Inhibition (Micrococcus luteus; 25 microgram discs): 39 mm; Zone of Inhibition (Staphylococcus aureus [2]; 25 microgram discs): 29 mm; Minimum Inhibitory Concentration (Proteus morgani): 25 µg/mL; Minimum Inhibitory Concentration (Enterobacter cloacae): 25 µg/mL; Minimum Inhibitory Concentration (Serratia marcescens): 50 µg/mL; Minimum Inhibitory Concentration (Klebsiella pneumoniae): 50 µg/mL; Minimum Inhibitory Concentration (Pseudomonas aeruginosa): 200 µg/mL; Minimum Inhibitory Concentration [4]: 12.5 µg/mL; Minimum Inhibitory Concentration (Escherichia coli [5]): 6.25 µg/mL; Minimum Inhibitory Concentration [6]: 3.12 µg/mL; Minimum Inhibitory Concentration (Staphylococcus aureus [7]): 1.56 µg/mL |
| COC1=C(C(=O)O)N2C(=O)C(C(C)O)C2C1O (stereo not drawn) [HET H H OCH3 H OH I, Sodium 6-alpha-(1-Hydroxyethyl)-1-hydroxy-2-methoxycarbapen-2-em-3-carboxylate] | 22 | 11 | 42 | 27 |  |  |  |
| CC1=C(C(=O)OCOC(=O)C(C)(C)C)N2C(=O)C(C(C)O)C2C1O (stereo not drawn) [HET H POM CH3 H OH I, pivaloyloxymethyl 6-alpha-(1-hydroxyethyl)-1-hydroxy-2-methylcarbapen-2-em-3-carboxylate] |  |  |  |  |  |  | Zone of Inhibition (Bacillus subtilis; 25 microgram discs): 24 mm; Zone of Inhibition (Escherichia coli [1]; 25 microgram discs): 14 mm; Zone of Inhibition (Micrococcus luteus; 25 microgram discs): 31 mm; Zone of Inhibition (Staphylococcus aureus [2]; 25 microgram discs): 27 mm |
| Cc1onc(-c2ccccc2)c1C(=O)NC1C(=O)N2C(C(=O)OCOC(=O)C(C)(C)C)C(C)C(=O)C12 (stereo not drawn) [MPI H POM CH3 O I, Pivaloyloxymethyl 2-Methyl-6-(5-methyl-3-phenylisoxazole-4-carboxamido)-1-oxocarbapenam-3-carboxylate] | 15 | 0 |  | 0 | 0 | 11 |  |
| CC1=C(C(=O)OCOC(=O)C(C)(C)C)N2C(=O)C(NC(=O)c3c(-c4ccccc4)noc3C)C2C1=O (stereo not drawn) [MPI H POM CH3 O II, Pivaloyloxymethyl 2-Methyl-6-(5-methyl-3-phenylisoxazole-4-carboxamido)-1-oxocarbapen-2-em-3-carboxylate] | 21 | 0 |  | 0 | 0 | 9 |  |
| CC(=O)OC1C(C)C(C(=O)O)N2C(=O)C(NC(=O)COc3ccccc3)C12 (stereo not drawn) [PMA H H CH3 H OAc I, 1-Acetoxy-2-methyl-6-(2-phenoxyacetamido)carbapenam-3-carboxylic Acid] | 0 | 0 | 0 | 0 |  | 0 |  |
| COC1(NC(=O)COc2ccccc2)C(=O)N2C(C(=O)OCOC(=O)C(C)(C)C)=C(C)C(=O)C21 (stereo not drawn) [PMA OMe POM CH3 O II, Pivaloyloxymethyl 6-Methoxy-2-methyl-1-oxo-6-(2-phenoxyacetamido)carbapen-2-em-3-carboxylate] | 33 | 0 |  | 8 | 0 | 0 |  |
| CC1(C)S[C@@H]2[C@H](NC(=O)Cc3ccccc3)C(=O)N2[C@H]1C(=O)O [Penicillin G, reference compound] |  |  |  |  |  |  | Zone of Inhibition (Bacillus subtilis; [12]): 33 mm; Zone of Inhibition (Escherichia coli [1]; [12]): 0 mm; Zone of Inhibition (Micrococcus luteus; [12]): 45 mm; Zone of Inhibition ([3]; positive control, 10 microgram discs, antibiotic resistant): 0 mm; Zone of Inhibition (Staphylococcus aureus [2]; [12]): 32 mm; Zone of Inhibition (Vibrio percolans; [12]): 32 mm |
| CC1(C)S[C@@H]2[C@H](NC(=O)Cc3ccccc3)C(=O)N2[C@H]1C(=O)O [Penicillin, reference compound] |  |  |  |  |  |  | zone of inhibition at 10 µg/disc (Bacillus subtilis; Bacillus subtilis, positive control, 10 microgram discs): 32 mm; Zone of Inhibition (Escherichia coli [1]; [12]): 16 mm; zone of inhibition at 10 µg/disc (Micrococcus luteus; Micrococcus luteus): 45 mm; zone of inhibition at 10 µg/disc ([3]; Staphylococcus aureus): 0 mm; zone of inhibition at 10 µg/disc (Staphylococcus aureus [2]; Staphylococcus aureus, positive control, 10 microgram discs): 31 mm; zone of inhibition at 10 µg/disc (Vibrio percolans; Comamonas terrigena, positive control, 10 microgram discs): 33 mm |
